Experimental data published in ChEMBL document CHEMBL3588835, “Discovery of a new chemical series of BRD4(1) inhibitors using protein-ligand docking and structure-guided design” (Bioorg Med Chem Lett, 2015).

What was measured:
[1] = molecular target: T1, Bromodomain-containing protein 4 (Homo sapiens, UniProt O60885); test: Inhibition of HTRF binding to N-terminal His-tagged BRD4(1) (unknown origin) at 50 uM using biotinylated tetra-acetylated histone H4 peptide and Cryptate-labeled streptavidin incubated for 2 hrs by TR-FRET assay
[2] = molecular target: T2, Bromodomain-containing protein 2 (Homo sapiens, UniProt P25440); test: Inhibition of HTRF binding to N-terminal His-tagged BRD2(2) (unknown origin) at 50 uM using biotinylated tetra-acetylated histone H4 peptide and Cryptate-labeled streptavidin incubated for 2 hrs by TR-FRET assay
Target sequence in this assay (P25440 whole entry, looked up): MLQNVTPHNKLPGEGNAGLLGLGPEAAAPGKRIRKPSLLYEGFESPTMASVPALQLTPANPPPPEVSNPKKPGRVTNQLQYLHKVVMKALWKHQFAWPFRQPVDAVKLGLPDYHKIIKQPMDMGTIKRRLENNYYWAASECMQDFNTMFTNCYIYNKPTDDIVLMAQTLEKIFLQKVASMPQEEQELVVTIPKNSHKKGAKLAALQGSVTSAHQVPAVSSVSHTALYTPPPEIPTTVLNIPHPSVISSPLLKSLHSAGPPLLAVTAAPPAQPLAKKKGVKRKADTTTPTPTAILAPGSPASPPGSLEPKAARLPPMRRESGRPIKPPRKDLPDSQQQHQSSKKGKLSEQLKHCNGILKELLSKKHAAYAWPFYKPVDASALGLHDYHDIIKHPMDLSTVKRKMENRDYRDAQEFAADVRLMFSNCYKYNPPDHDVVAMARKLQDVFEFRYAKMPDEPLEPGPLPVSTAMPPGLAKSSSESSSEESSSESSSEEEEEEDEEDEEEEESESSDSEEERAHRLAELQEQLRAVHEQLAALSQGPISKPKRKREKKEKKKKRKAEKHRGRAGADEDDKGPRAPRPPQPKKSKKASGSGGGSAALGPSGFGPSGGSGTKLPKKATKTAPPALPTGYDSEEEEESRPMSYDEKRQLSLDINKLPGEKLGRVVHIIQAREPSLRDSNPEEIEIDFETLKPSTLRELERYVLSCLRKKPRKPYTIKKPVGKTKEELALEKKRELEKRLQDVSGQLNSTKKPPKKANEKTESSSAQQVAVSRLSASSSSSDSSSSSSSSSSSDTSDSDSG

[3] = molecular target: T1, Bromodomain-containing protein 4; test: Inhibition of HTRF binding to N-terminal His-tagged BRD4(1) (unknown origin) using biotinylated tetra-acetylated histone H4 peptide and Cryptate-labeled streptavidin incubated for 2 hrs by TR-FRET assay
[4] = molecular target: T2, Bromodomain-containing protein 2; test: Inhibition of HTRF binding to N-terminal His-tagged BRD2(2) (unknown origin) using biotinylated tetra-acetylated histone H4 peptide and Cryptate-labeled streptavidin incubated for 2 hrs by TR-FRET assay
Target sequence in this assay (P25440 whole entry): as the sequence (P25440 whole entry, looked up) above

| Structure (SMILES) | inhibition [1] [%] | inhibition [2] [%] | IC50 [3] [µM] | IC50 [4] [µM] |
| --- | --- | --- | --- | --- |
| CC(C)Sc1ccccc1C(=O)N1CC(=O)Nc2ccccc21 | 0 | 25 | – | – |
| O=C1CN(C(=O)Cc2cccs2)c2ccccc2N1 | 0 | 0 | – | – |
| COc1ccc(/C=C(/C(=O)N2CC(=O)Nc3ccccc32)c2ccc(OC)cc2OC)cc1 | – | – | > 50 | > 50 |
| O=C1CN(C(=O)c2cncc(-c3ccc(F)cc3)c2)c2ccccc2N1 | – | – | 47 | – |
| COc1ccc(/C=C(/C(=O)N2CC(=O)Nc3ccccc32)c2ccc(OC)cc2)cc1 | – | – | 16 | 13 |
| CS(=O)(=O)N(CC(=O)N1CC(=O)Nc2ccccc21)c1ccccc1F | 0 | 0 | – | – |
| COc1ccc(/C=C(/C(=O)N2CC(=O)Nc3ccccc32)c2cccs2)cc1 | – | – | 13 | 23 |
| O=C1CN(C(=O)c2cccc(C(F)(F)F)c2)c2ccccc2N1 | > 25 | > 50 | – | – |
| O=C1CN(C(=O)c2cncc(-c3ccccc3)c2)c2ccccc2N1 | – | – | 26 | 20 |
| COc1ccc(CC(=O)N2CC(=O)Nc3ccccc32)cc1OC | 0 | 25 | – | – |
| CC(=O)Nc1cccc(/C=C(/C(=O)N2CC(=O)Nc3ccccc32)c2ccccc2)c1 | – | – | 40 | 10 |
| COc1ccc(/C=C(/C(=O)N2CC(=O)Nc3ccccc32)c2ccc(C)c(C)c2)cc1 | – | – | 14 | > 50 |
| COc1cccc(OCC(=O)N2CC(=O)Nc3ccccc32)c1 | 0 | 25 | – | – |
| O=C1CN(C(=O)c2cc(O)cc(-c3ccccc3)c2)c2ccccc2N1 | – | – | 9 | – |
| COC(=O)c1ccc(/C=C(/C(=O)N2CC(=O)Nc3ccccc32)c2ccccc2)cc1 | – | – | 25 | 25 |
| CCc1ccc(CC(=O)N2CC(=O)Nc3ccccc32)cc1 | 0 | 0 | – | – |
| O=C1CN(C(=O)CCc2ccccc2Cl)c2ccccc2N1 | 0 | 25 | – | – |
| COc1ccc(/C=C(/C(=O)N2CC(=O)Nc3ccccc32)c2ccc(OC)c(OC)c2)cc1 | – | – | 18 | 26 |
| O=C1CN(C(=O)c2cccc(F)c2)c2ccccc2N1 | 0 | 25 | – | – |
| Cc1cccc(OCCC(=O)N2CC(=O)Nc3ccccc32)c1 | 0 | 25 | – | – |
| COc1cc(C(=O)N2CC(=O)Nc3ccccc32)cc(-c2ccccc2)c1 | – | – | 13 | – |
| O=C1CN(C(=O)c2sc3ccccc3c2Cl)c2ccccc2N1 | 0 | 25 | – | – |

| Structure (SMILES) | inhibition [1] [%] | inhibition [2] [%] | IC50 [3] [µM] | IC50 [4] [µM] |
| --- | --- | --- | --- | --- |
| O=C1CN(C(=O)C(c2ccccc2)c2ccccc2)c2ccccc2N1 | > 25 | > 50 | – | – |
| Cc1ccc(CC(=O)N2CC(=O)Nc3ccccc32)cc1 | 0 | 0 | – | – |
| COc1ccc(/C=C(/C(=O)N2CC(=O)Nc3ccccc32)c2ccc(NC(C)=O)cc2)cc1 | – | – | 13 | 24 |
| COc1cc(NCc2ccccc2)cc(C(=O)N2CC(=O)Nc3ccccc32)c1 | – | – | > 50 | – |
| COc1ccc(/C=C(/C(=O)N2CC(=O)Nc3ccccc32)c2ccccc2)cc1 | > 25 | > 50 | 26 | 22 |
| O=C1CN(C(=O)Cc2cccc3ccccc23)c2ccccc2N1 | > 25 | > 50 | – | – |
| CSc1ccc(CC(=O)N2CC(=O)Nc3ccccc32)cc1 | 0 | 0 | – | – |
| Cc1ccc(-c2cc(C(=O)N3CC(=O)Nc4ccccc43)[nH]n2)cc1 | 0 | 0 | – | – |
| O=C1CN(C(=O)c2cc(-c3cccc(Cl)c3)[nH]n2)c2ccccc2N1 | 0 | 0 | – | – |
| COc1cccc(-c2cncc(C(=O)N3CC(=O)Nc4ccccc43)c2)c1 | – | – | 25 | – |
| CCn1ccc(C(=O)N2CC(=O)Nc3ccccc32)n1 | > 25 | > 50 | – | – |
| N#Cc1cccc(-c2cncc(C(=O)N3CC(=O)Nc4ccccc43)c2)c1 | – | – | 44 | 12 |
| COc1ccc(/C=C(/C(=O)Nc2c(C)noc2C)c2ccc(OC)cc2)cc1 | – | – | 44 | 12 |
| O=C1CN(C(=O)c2cncc(-c3ccc(Cl)cc3)c2)c2ccccc2N1 | – | – | 49 | – |
| CSc1ccccc1C(=O)N1CC(=O)Nc2ccccc21 | > 25 | > 50 | – | – |
| COc1ccc(/C=C(/C(=O)N2CC(=O)Nc3cc(OC)ccc32)c2ccc(OC)cc2)cc1 | – | – | 13 | 13 |
| COc1ccc(/C(=C\c2ccncc2)C(=O)N2CC(=O)Nc3ccccc32)cc1 | – | – | 25 | 5 |
| O=C1CN(C(=O)c2cncc(-c3cccc(O)c3)c2)c2ccccc2N1 | – | – | 29 | – |
| COc1ccc(/C=C(/C(=O)N2CC(=O)Nc3cc(OC)ccc32)c2ccccc2)cc1 | – | – | 34 | > 50 |
| NC(=O)c1ccc(/C=C(/C(=O)N2CC(=O)Nc3ccccc32)c2ccccc2)cc1 | – | – | 46 | 49 |
| O=C1CN(C(=O)Cc2ccc(Cl)cc2)c2ccccc2N1 | 0 | 25 | – | – |
| CSc1ccc(Cl)c(C(=O)N2CC(=O)Nc3ccccc32)c1 | 0 | 0 | – | – |
